According to patent US20160166560A1, “Urea Compounds and Their Use as FAAH Enzyme Inhibitors” (BIAL-PORTELA & Cª, S.A., priority 2013, published 2016):
Counter-ions that a name gives are not always drawn.

What was measured:
FAAH [1] = molecular target: T1, FAAH (Mus musculus, UniProt O08914); experiment: In vitro/ex vivo FAAH activity determination in brain after intra-tracheal instillation; design: Liver and brain fragments were removed and processed for enzymatic activity determination; from tissue; species or system male NMRI mice; conditions: remaining enzymatic activity vs controls, 1 mg/kg intra-tracheal instillation, sacrificed after 8 h
T1 sequence (O08914 1-579): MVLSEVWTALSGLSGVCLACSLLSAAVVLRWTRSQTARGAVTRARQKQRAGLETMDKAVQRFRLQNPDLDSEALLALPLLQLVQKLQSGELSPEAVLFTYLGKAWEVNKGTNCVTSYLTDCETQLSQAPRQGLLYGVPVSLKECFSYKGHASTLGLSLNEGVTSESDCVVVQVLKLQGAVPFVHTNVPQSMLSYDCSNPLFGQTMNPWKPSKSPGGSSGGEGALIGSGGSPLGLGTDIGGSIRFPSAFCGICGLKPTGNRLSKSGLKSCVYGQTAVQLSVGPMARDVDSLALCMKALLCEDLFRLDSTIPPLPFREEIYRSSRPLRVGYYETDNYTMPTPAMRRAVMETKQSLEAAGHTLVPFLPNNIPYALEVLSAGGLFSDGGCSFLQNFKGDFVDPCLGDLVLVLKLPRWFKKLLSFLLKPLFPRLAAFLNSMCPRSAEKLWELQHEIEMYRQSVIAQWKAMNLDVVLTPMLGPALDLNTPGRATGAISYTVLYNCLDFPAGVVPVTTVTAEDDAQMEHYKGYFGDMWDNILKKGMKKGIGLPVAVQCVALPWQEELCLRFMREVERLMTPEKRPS
Protocol: (§1) To evaluate the selectivity of test compounds in inhibiting FAAH activity, male NMRI mice were administrated following instillation with 1 mg/kg compound and were sacrificed after 8 h treatment. Liver and brain fragments were removed and processed for enzymatic activity determination.
(§2) FAAH activity was measured as the amount of ^3H-ethanolamine formed, by liquid scintillation counting, from the hydrolysis of the substrate anandamide (AEA, labeled with ^3H on the ethanolamine part of the molecule). The percentage of remaining enzymatic activity was calculated in respect to controls and after blank subtraction. Therefore, a low value for the test compounds indicates a strong inhibitor.
(§3) Male NMRI mice (body weight range: 25-35 g) were obtained from Harlan Laboratories (Barcelona, Spain). Animals were kept 10 per cage, under controlled environmental conditions (12 hr light [8 am]/12 hr dark [8 pm]cycle; room temperature 22±1° C.). Food and tap water were allowed ad libitum. Animals were habituated to the animal facilities at least for a week prior to experiments. The experiments were all carried out during daylight hours.
(§4) Animals were fasted overnight before administration of compounds. […] After administration the animals were given atipamezole (1 mg/kg) to reverse the sedative and analgesic effects induced by the anaesthesia.
(§5) Fifteen minutes before sacrifice, animals were anesthetized with pentobarbital 60 mg/kg administrated intra-peritoneally. The brain (without cerebellum) and a fragment of liver were collected into plastic vials containing membrane buffer (3 mM MgCl2, 1 mM EDTA, 50 mM Tris HCl, pH 7.4). Glass beads (2.5 mm BioSpec Products, Bartlesville, Okla., USA) were added to the vials containing the brain and liver tissues. Tissues were stored at −20° C. until analysis.
(§6) Anandamide [ethanolamine-1-^3H-] was obtained from American Radiochemicals—with a specific activity of 60 Ci/mmol. All other reagents were obtained from Sigma-Aldrich. Optiphase Supermix was obtained from Perkin Elmer.
(§7) Brain and liver tissues were thawed and homogenized in 10 volumes of membrane buffer (3 mM MgCl2, 1 mM EDTA, 50 mM Tris HCl, pH 7.4) with homogenizer Precellys 24 Dual Tissue Homogenizer (Bertin Technologies) for 2 cycles of 5 sec (5000 rpm).
(§8) Total protein in the tissue homogenates was determined with the BioRad Protein Assay (BioRad) using a standard curve of BSA ([…]). Tissue homogenates were diluted to appropriate concentration for enzymatic determination in assay buffer (1 mM EDTA, 10 mM Tris HCl, pH 7.6).
(§9) Reaction mix (total volume 200 μL) contained 2 μM AEA (2 μM AEA+5 nM ^3H-AEA), 0.1% fatty acid free BSA, 15 μg (brain) or 5 μg (liver) protein, in assay buffer (1 mM EDTA, 10 mM Tris pH 7.6).
(§10) The test compound was used at a level of 1 mg/kg protein. After 15 minutes pre-incubation at 37° C. of the protein sample, reaction was started by the addition of the substrate solution (cold AEA+radiolabelled AEA+BSA). Reaction was carried out for 12 minutes for brain and liver tissues. Reaction was terminated by addition of 400 μL chloroform:methanol (1:1, v/v) solution. Reaction samples were vortex twice, left on ice for 5 minutes and then centrifuged in the microfuge for 7 minutes, 7000 rpm. 200 μL of the obtained supernatants were added to […] Optiphase Supermix scintillation cocktail previously distributed in 24-well plates.
(§11) Counts per minute (cpm) were determined in a Microbeta TriLux scintillation counter. In each assay blank samples (without protein) were prepared.

CYPs = CYPs metabolic stability assay in HLM (human liver microsomes); format: in vitro ADME; conditions: HLM 1 mg/ml protein, compound 5 μM, 60 min, 37° C.; for Control (% remain): absence of NADPH; for CYP+ (% remain): with NADPH 1 mM
Protocol: Stability of the test compounds was performed in HLM (human liver microsomes) in the presence and in the absence of NADPH.
The stability was measured using the incubation mixture (100 μl total volume) contained 1 mg/ml total protein, MgCl2 5 mM and 50 mM K-phosphate buffer. Samples were incubated in the presence and in the absence of NADPH 1 mM. Reactions were pre-incubated 5 min and the reaction initiated with the compound under test (at a concentration of 5 μM). Samples were incubated for 60 min in a shaking water bath at 37° C. The reaction was stopped by adding 100 μl of acetonitrile. Samples were then centrifuged, filtered and supematant injected in HLPC-MSD. Test compounds were dissolved in DMSO and the final concentration of DMSO in the reaction was below 0.5% (v/v). At T0 acetonitrile was added before adding the compound. All experiments were performed with samples in duplicate.

FAAH [2] = molecular target: T1, FAAH; experiment: In vitro/ex vivo FAAH activity determination in liver after intra-tracheal instillation; design: Liver and brain fragments were removed and processed for enzymatic activity determination; from tissue; host or cells: mouse liver fragment homogenate; species or system male NMRI mice; conditions: remaining enzymatic activity vs controls, 1 mg/kg intra-tracheal instillation, sacrificed after 8 h
Protocol: as §1, §2, §3, §4, §5, §6, §7, §8, §9, §10, §11

Row | SMILES | FAAH Activity - Brain itc (% C) (FAAH [1]) | Control (% remain) (CYPs) | CYP+ (% remain) (CYPs) | FAAH Activity - Liver itc (% C) (FAAH [2]) | FAAH Activity - Brain itc (% C) (FAAH [1]; methanesulfonate, 1 mg/kg) | FAAH Activity - Liver itc (% C) (FAAH [2]; methanesulfonate, 1 mg/kg) | FAAH Activity - Brain itc (% C) (FAAH [1]; maleate, 1 mg/kg) | FAAH Activity - Liver itc (% C) (FAAH [2]; maleate, 1 mg/kg)
1 | COc1cccc(CN2CCC(N(C)C(=O)n3cnc(-c4ccc(OS(N)(=O)=O)cc4)c3)CC2)c1 [Example 14, 4-(1-((1-(3-methoxybenzyl)piperidin-4-yl)(methyl)carbamoyl)-1H-imidazol-4-yl)phenyl sulfamate hydrochloride] | 89.3 | 100.9 | 68.6 | 6.0 | – | – | – | –
2 | CN(C(=O)n1cnc(-c2cccc(NS(C)(=O)=O)c2)c1)C1CCN(c2ccc(O)cc2)CC1 [Example 24, N-(1-(4-hydroxyphenyl)piperidin-4-yl)-N-methyl-4-(3-(methylsulfonamido)phenyl)-1H-imidazole-1-carboxamide hydrochloride] | 92.6 | 91.5 | 76.2 | 5.7 | – | – | – | –
3 | COc1cc(CN2CCC(N(C)C(=O)n3cnc(-c4ccc(OS(N)(=O)=O)cc4)c3)CC2)ccc1F [Example 12, 4-(1-((1-(4-fluoro-3-methoxybenzyl)piperidin-4-yl)(methyl)carbamoyl)-1 H-imidazol-4-yl)phenyl sulfamate oxalate] | 108.7 | 106.2 | 7.9 | 3.8 | – | – | – | –
4 | CN(C(=O)n1cnc(-c2cccc(NC(N)=O)c2)c1)C1CCN(Cc2ccccc2)CC1 [Example 22, N-(1-benzylpiperidin-4-yl)-N-methyl-4-(3-ureidophenyl)-1H-imidazole-1-carboxamide methanesulfonate] | – | – | – | – | 113.8 | 10.7 | – | –
5 | COc1cc(CN2CCC(N(C)C(=O)n3cnc(-c4cccc(OS(N)(=O)=O)c4)c3)CC2)cc(OC)c1.Cl [Example 9, 3-(1-((1-(3,5-dimethoxybenzyl)piperidin-4-yl)(methyl)carbamoyl)-1H-imidazol-4-yl)phenyl sulfamate hydrochloride] | 107.2 | 102.5 | 62.8 | 3.9 | – | – | – | –
6 | CN(C(=O)n1cnc(-c2cccc(C(N)=O)c2)c1)C1CCN(c2ccccc2O)CC1 [Example 37, 4-(3-carbamoylphenyl)-N-(1-(2-hydroxyphenyl)piperidin-4-yl)-N-methyl-1H-imidazole-1-carboxamide hydrochloride] | 110.2 | – | – | 3.4 | – | – | – | –
7 | COc1ccc(CN2CCC(N(C)C(=O)n3cnc(-c4cccc(NS(C)(=O)=O)c4)c3)CC2)cc1OC [Example 5, N-(1-(3,4-dimethoxybenzyl)piperidin-4-yl)-N-methyl-4-(3-(methylsulfonamido)phenyl)-1H-imidazole-1-carboxamide hydrochloride] | 104.7 | 100 | 77.3 | 5.7 | – | – | – | –
8 | COc1cc(CN2CCC(N(C)C(=O)n3cnc(-c4cccc(OS(N)(=O)=O)c4)c3)CC2)ccc1F [Example 10, 3-(1-((1-(4-fluoro-3-methoxybenzyl)piperidin-4-yl)(methyl)carbamoyl)-1H-imidazol-4-yl)phenyl sulfamate hydrochloride] | 113.4 | 100.0 | 5.8 | 3.2 | – | – | – | –
9 | COc1cccc(CN2CCC(N(C)C(=O)n3cnc(-c4cccc(NS(C)(=O)=O)c4)c3)CC2)c1 [Example 4, N-(1-(3-methoxybenzyl)piperidin-4-yl)-N-methyl-4-(3-(methylsulfonamido)phenyl)-1H-imidazole-1-carboxamide hydrochloride] | 98.7 | 100 | 11.2 | 7.2 | – | – | – | –
10 | COc1cc(CN2CCC(N(C)C(=O)n3cnc(-c4ccc(OS(N)(=O)=O)cc4)c3)CC2)cc(OC)c1 [Example 19, 4-(1-((1-(3,5-dimethoxybenzyl)piperidin-4-yl)(methyl)carbamoyl)-1H-imidazol-4-yl)phenyl sulfamate maleate] | – | – | – | – | – | – | 99.2 | 9.2
11 | CN(C(=O)n1cnc(-c2cccc(C(N)=O)c2)c1)C1CCN(Cc2ccccc2O)CC1 [Example 36, 4-(3-carbamoylphenyl)-N-(1-(2-hydroxybenzyl)piperidin-4-yl)-N-methyl-1 H-imidazole-1-carboxamide hydrochloride] | 94.4 | – | – | 8.6 | – | – | – | –
12 | COc1cccc(CN2CCC(N(C)C(=O)n3cnc(-c4cccc(C(N)=O)c4)c3)CC2)c1 [Example 13, 4-(3-carbamoylphenyl)-N-(1-(3-methoxybenzyl)piperidin-4-yl)-N-methyl-1H-imidazole-1-carboxamide hydrochloride] | – | 103.5 | 25.1 | – | – | – | – | –
13 | COc1cccc(CN2CCC(N(C)C(=O)n3cnc(-c4cccc(NS(N)(=O)=O)c4)c3)CC2)c1.O=C(O)/C=C\C(=O)O.O=C(O)/C=C\C(=O)O [Example 20, N-(1-(3-methoxybenzyl)piperidin-4-yl)-N-methyl-4-(3-(sulfamoylamino)phenyl)-1H-imidazole-1-carboxamide dimaleate] | 86.4 | – | – | 15.8 | – | – | – | –
14 | COc1ccccc1CN1CCC(N(C)C(=O)n2cnc(-c3cccc(C(N)=O)c3)c2)CC1 [Example 38, 4-(3-carbamoylphenyl)-N-(1-(2-methoxybenzyl)piperidin-4-yl)-N-methyl-1H-imidazole-1-carboxamide hydrochloride] | 96.5 | – | – | 6.0 | – | – | – | –
